Each structure is given as a SMILES string. “Also recorded” adds a separate entry of the source.

The subject of data set [1] is SK-N-SH neuroblastoma cells. Briefly: Protection of SK-N-SH neuroblastoma against Aβ42-induced cell death (MTT assay). Conditions: Homo sapiens, SK-N-SH, read-out: % Viability ± RSD, neuroprotective effect against Aβ induced damage. The protocol: The effects of Aβ42 on the viability of SK-N-SH neuroblastoma cells were investigated using an MTT reduction test. MTT is a tetrazolium salt that can be reduced to formazan by mitochondria dehydrogenase; the reaction is active only in living cells.
The relative cell viability (compared with the control) was then assessed.
(§1) Quantitative measurement of cell viability was performed by MTT assay. Briefly, SK-N-SH cells were seeded at a density of 5 × 10^4 cells/100 µL into each well of 96-well plate and incubated at 37 °C in 5% CO2 for 24 h. After incubation, the tested compounds were added at different concentrations, from 0 to 1000 µM. After incubation for 24 h, 50 µL of 3-(4,5-dimethylthiazol-2-yl)-2,5-diphenyltetrazolium bromide (MTT) stock solution (1 mg/mL) was added to each well and incubated at 37 °C for 3 h. Absorbance (A) of each well was measured using a plate reader at a wavelength of 590 nm. Three independent experiments were performed, and results were expressed as mean ± SD. […] Each concentration was prepared in triplicate. […] After incubation for 24 h, 50 µL of MTT stock solution (1 mg/mL) was added to each well and incubated at 37 °C for 3 h. The absorbance (A) of each well was measured using a plate reader at a wavelength of 590 nm. Three independent experiments were performed, and results were expressed as mean ± SD.
(§2) The percent of cell viability was calculated as follow: (A590nm of treated cells/A590nm of untreated cells) × 100.

A short description of a further data set: in vitro. To be noted: human. On the procedure:
(§3) SK-N-SH cells were pretreated for 3 h with the respective half-maximal inhibitory doses of the tested compounds (except 9 and 10) before incubating with 25 μM Aβ42 for 24 h to determine the neuroprotective effect against Aβ42-induced toxicity. The relative cell viability (compared with the control) was then assessed.
as §1, §2

The test system of data set [2] is SK-N-SH neuroblastoma cells. Briefly: Cytotoxicity on SK-N-SH neuroblastoma cells (MTT assay). To be noted: MTT, 24 h, tested 0–1000 µM. The protocol:
as §3, §1, §2

The next data set concerns the target T1, Aβ1–42 (Homo sapiens, UniProt P05067).
T1 construct: Amyloid beta (Aβ1–42) was purchased from the American Peptide Company; purchased American Peptide Company (Sunnyvale, CA, USA)
Briefly: Anti-Aβ aggregation activity (Thioflavin T fluorescence assay). Format: biochemical. To be noted: for IC50: ThT assay, Aβ1–42, 24 h, room temperature, pH 7.4, read-out: IC50 (µM) ± RSD, antiaggregation action on Aβ42. On the procedure:
Each compound was diluted in 50 mM Tris-HCl (pH 7.4) to achieve a concentration between 10 nM and 100 µM using 5 concentration points. A total of 1 µL of each sample solution was added to 96-well plates. […] The plate was incubated in the dark at room temperature for 24 h with no agitation. After an incubation period, 200 µL of 5 µM ThT in 50 mM Tris-HCl (pH 7.4) was added to each well. Fluorescence was measured on a SpectraMax GEMINI EM (Molecular Devices, Sunnyvale, CA, USA) dual scanning microplate spectrofluorometer with excitation and emission wavelengths at 446 nm and 500 nm, respectively. The percent of antiaggregation was calculated as follows: [1 − (Fsample − Fblank)/Fcontrol] × 100.

The target in data set [3] is T2, Acetylcholinesterase (AChE) (Electrophorus electricus, UniProt O42275).
T2 construct: purchased Sigma type VI-S
Briefly: Antiacetylcholinesterase activity (Ellman assay). To be noted: read-out: % Inhibition ± RSD of acetylcholinesterase. The data set is classed as biochemical, Electrophorus electricus (electric eel). On the procedure: All the chemicals were purchased from commercial suppliers and were used without any purification. Acetylcholinesterase from Electrophorus electricus (electric eel) type VI-S was produced from Sigma. […] SK-N-SH human neuroblastoma cell line was obtained from the American Type Culture Collection (ATCC HTB-11). The melting point of all compounds was determined on an Electrothermal model 9100 capillary melting point apparatus. Infrared (IR) spectra were run on Fourier Transform Infrared Spectroscopy (FT-IR) (Nicolet 6700, Thermo Scientific, Waltham, MA, USA) using the direct compression technique and record in cm^−1. Proton and carbon nuclear magnetic resonance (^1H NMR, ^13C NMR) spectra were obtained on an Advance 300 MHz NMR Spectroscopy (DPX-3000, Bruker, Switzerland) at 300 MHz and 75.45 MHz, respectively. Chemical shifts (δ) were reported in parts per million (ppm). The NMR solvents used were deuterated dimethylsulfoxide (DMSO-d6, δ = 2.49 ppm) and deuterated chloroform (CDCl3, δ = 7.25 ppm). Mass spectra were determined on a LCQ Fleet Ion Trap Mass Spectrometry using the ESI method. Silica gel 60 (Merck, Art 7734) was used for column chromatography as an adsorbent. The ratio of sample and the adsorbent was about 1:40–60 by weight. The mobile phases developed for thin-layer chromatography (TLC) were generally applied for a column. TLC investigations routinely used for chromatographic separations were carried out on silica gel F254 coated aluminum sheets 20 × 20 cm (Merck, 0.2 mm thickness). The components were detected by visualization under ultraviolet (UV) light at λ of 254 and 365 nm. All solvents were reagent grade and, when necessary, were purified and dried by standard methods. Starting materials and reagents were obtained from commercial suppliers.
Acetylcholinesterase (AChE) inhibitory activity was assayed by modified Ellman’s method using 96-well microplates. […] The absorbance of the mixture in each well was measured at 405 nm by using a microplate reader. After adding 25 µL of 0.22 U/mL AChE in Buffer II into each well, the measurement of absorbance was carried out again at 405 nm and repeated every 45 s for 10 min cycles by a microplate reader (Infinite M200, Tecan, Switzerland). […] The assay was performed in triplicate. […] The percent of enzyme inhibition was calculated as follows: {[(A-B) − (C − D)]/(A − B)} × 100, where A and C were the absorbances of the control treatment and test compounds; and B and D were blank of control and test compounds.

The nature of data set [4]: Antioxidant activity (DPPH assay). To be noted: DPPH 0.4 mM, 30 min in darkness; read-out: IC50 (µM) ± RSD, antioxidative activity. On the procedure:
Increased generation of free radicals also results in cytotoxicity from Aβ42. This effect might be associated with the Aβ1–42 mediated neurotoxicity. Therefore, it was intriguing to research the roles of the synthesized compounds in assisting oxidative stress, thus preventing cell death. By employing vitamin C as a positive control, the antioxidative properties of synthesized compounds were assessed using the DPPH assay. The activities were presented as the IC50 in Table 4.
Antioxidant activity of tested compounds was determined by the reaction of stable DPPH radical with some modification. Briefly, various concentrations of test compounds were added in 96-well plates and then the methanolic DPPH solution (0.4 mM, 0.1 mL) into each well. The reaction mixture was placed for 30 min in darkness. The degree of purple DPPH decolorization to yellow DPPH indicated the scavenging capacity of the test compounds. The absorbance of the mixture was determined at 517 nm using a microplate reader and L-ascorbic acid served as a positive control. The percent of antioxidant activity was calculated as follow: [1 − (Asample − Ablank)/Acontrol] × 100.
For orientation: The DPPH test is a chemical assay of radical scavenging.

The next data set concerns SK-N-SH cells. Put plainly: Morphological cell changes (phase contrast inverted microscope). Format: cell-based, human. To be noted: 25 µM Aβ42, 24 h. On the procedure:
The effect of Aβ42 in inducing cell death was confirmed using a phase-contrast inverted microscope.
To determine the effect of designed compounds on cell morphology, the observation of cells on phase contrast inverted microscope was performed. […] After incubation, the medium was removed and replaced with various concentrations of the designed compound and incubated for 24 h. After cells were treated with compounds or Aβ1–42, media were removed and treated cells were washed once with phosphate buffer saline (PBS). Then, cells were observed under phase contrast inverted microscope at 400 magnifications.

T1 sequence (P05067 672-713): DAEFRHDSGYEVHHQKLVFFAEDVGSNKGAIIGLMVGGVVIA
T2 sequence (O42275 24-633): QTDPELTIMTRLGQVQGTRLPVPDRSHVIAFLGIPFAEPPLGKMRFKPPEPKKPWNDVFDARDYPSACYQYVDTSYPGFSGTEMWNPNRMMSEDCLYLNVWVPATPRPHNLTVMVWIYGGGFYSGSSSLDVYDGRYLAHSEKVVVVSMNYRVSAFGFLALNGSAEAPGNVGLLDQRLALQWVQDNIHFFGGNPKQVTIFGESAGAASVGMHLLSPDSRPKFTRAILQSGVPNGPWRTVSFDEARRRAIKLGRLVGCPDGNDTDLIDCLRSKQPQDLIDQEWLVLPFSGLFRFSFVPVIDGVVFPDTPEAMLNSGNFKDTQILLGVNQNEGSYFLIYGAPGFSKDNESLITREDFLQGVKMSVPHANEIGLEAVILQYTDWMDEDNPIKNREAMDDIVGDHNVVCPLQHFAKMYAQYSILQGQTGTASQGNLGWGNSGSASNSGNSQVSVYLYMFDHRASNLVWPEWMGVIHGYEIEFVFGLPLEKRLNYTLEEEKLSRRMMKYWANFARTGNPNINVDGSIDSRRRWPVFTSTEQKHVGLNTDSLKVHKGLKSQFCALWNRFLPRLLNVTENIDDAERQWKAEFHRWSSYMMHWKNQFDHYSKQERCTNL

As for `CNC(=O)Cc1c(C)[nH]c2ccc(Oc3ccccc3)cc12` [Compound 4, 2-Methyl-3-(methylethanamide-2-yl)-5-phenoxy Indole], the viability at 31.25 µM in data set [1] worked out at 72.3 ± 1.85%. This compound gave a viability at 24 h in the data set “in vitro” of 93.7 ± 3.23%. The “Highest concentration that showed nontoxicity on SK-N-SH cells” value in data set [2] is recorded as 31.25 µM. In addition, the IC50 on Aβ1–42 worked out at 3.26 µM; in data set [4], 176 µM. Also, at Aβ1–42 (compared to compound 7), the “Fold more potent against Aβ aggregation than methyl ester 7” value is reported as 4.3 fold. In data set [3], the inhibition at 100 µM was 9.73%.

In the data set “in vitro”, `Cc1[nH]c2ccc(Oc3ccccc3)cc2c1CC(=O)NS(C)(=O)=O` [Compound 5, 2-Methyl-3-(methylsulfonylethanamide-2-yl)-5-phenoxy Indole] showed a viability at 24 h of 93 ± 1.02%. The “Highest concentration that showed nontoxicity on SK-N-SH cells” value in data set [2] worked out at 62.50 µM. Further, the IC50 came out at 3.18 µM at Aβ1–42 and 28.2 µM in data set [4]. Further, the “Morphology of SK-N-SH cells treated with Aβ42 and compound” value in the data set on SK-N-SH cells was “healthy cell bodies with neurites; also recorded: healthy cell bodies and neuritis”. For the same compound, the inhibition at 100 µM in data set [3] is -5.66%.

Consider `COC(=O)Cc1c(C)[nH]c2ccc(Oc3ccccc3)cc12` [Compound 7, 2-Methyl-3-(methyl ethanoate-2-yl)-5-phenoxy Indole], for which, in data set [1], the viability at 31.25 µM is 83.7 ± 2.21%. For the same compound, in “in vitro”, the viability at 24 h stood at 93.4 ± 2.15%. Besides, in data set [2], the “Highest concentration that showed nontoxicity on SK-N-SH cells” value turned out to be 31.25 µM. The IC50 is 14 µM on Aβ1–42 and 145 µM in data set [4]. Also, the inhibition at 100 µM in data set [3] was determined as 11%.

The viability is the share of living cells, or the viability signal relative to a control. The IC50 is the midpoint of a concentration-inhibition curve. Usually inhibition stands for the change of the read-out against control, counted positive when it falls.
